Results from article PMC9803904, “Selective somatostatin receptor 5 inhibition improves hepatic insulin sensitivity” (Pharmacology Research & Perspectives, 2022).

Tests used:
[1] = molecular target: human SSTR5 (somatostatin receptor 5) (Homo sapiens, UniProt P35346); experiment: HTRF cAMP antagonist assay in CHO cells stably expressing human SSTR5, stimulated with SST28 and forskolin; format: cell-based
[2] = molecular target: T1, mouse SSTR5 (somatostatin receptor 5) (Mus musculus, UniProt O08858); experiment: HTRF cAMP antagonist assay in CHO cells stably expressing mouse SSTR5, stimulated with SST28 and forskolin; format: cell-based
T1 sequence (O08858 1-362): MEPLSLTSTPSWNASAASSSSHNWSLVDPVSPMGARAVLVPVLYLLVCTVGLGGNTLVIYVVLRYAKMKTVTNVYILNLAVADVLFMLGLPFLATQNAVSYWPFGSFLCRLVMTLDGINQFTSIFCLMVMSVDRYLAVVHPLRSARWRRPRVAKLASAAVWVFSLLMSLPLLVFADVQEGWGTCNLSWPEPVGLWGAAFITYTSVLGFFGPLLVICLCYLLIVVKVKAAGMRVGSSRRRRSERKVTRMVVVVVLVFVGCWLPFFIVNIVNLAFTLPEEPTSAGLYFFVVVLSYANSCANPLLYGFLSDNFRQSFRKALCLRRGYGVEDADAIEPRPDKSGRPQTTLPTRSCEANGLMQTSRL

Sequence of human SSTR5 (somatostatin receptor 5) (P35346 whole entry): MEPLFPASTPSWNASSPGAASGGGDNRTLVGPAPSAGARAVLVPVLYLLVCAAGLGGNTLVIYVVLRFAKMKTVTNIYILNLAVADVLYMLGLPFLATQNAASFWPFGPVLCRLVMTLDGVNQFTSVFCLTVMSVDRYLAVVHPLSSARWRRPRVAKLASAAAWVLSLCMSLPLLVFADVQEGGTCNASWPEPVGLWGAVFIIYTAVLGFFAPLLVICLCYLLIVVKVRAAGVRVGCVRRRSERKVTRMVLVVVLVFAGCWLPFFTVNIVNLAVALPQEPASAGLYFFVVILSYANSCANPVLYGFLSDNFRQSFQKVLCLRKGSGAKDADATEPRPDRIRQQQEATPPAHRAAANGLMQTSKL

IC50 [1]: 9.8 nM
IC50 [2]: 31 nM
Compound: Cc1c(C(=O)O)ccn(C2CCN(Cc3cc(C4CC4)c(-c4ccc(F)cc4)c(F)c3OC(C)C)CC2)c1=O [compound-1]
